Paper PMC12808100, “The non-catalytic DNA polymerase ε subunit is an NPF motif recognition protein” (Nature Communications, 2025)
Residues, ends and D or L forms follow the SMILES beside them.

Legend:
POLE = assay: Titration nHU, Western blot, endogenous POLE in Jurkat extract; type: binding, human; details: source data of Fig 5, titration nHU, Jurkat extract; unit inferred
Excerpt: (§1) To identify the partners of NPF motifs, we used the native holdup (nHU) assay that was recently developed by our team (Fig. 1B). The holdup approach has been extensively used to determine equilibrium dissociation constants of transient interactions mediated by PDZ and SH3 domains, 14-3-3, and human papilloma virus E6 proteins, and even nucleic acid-protein interactions[7],[30]–[35]. In the nHU experiments, a purified bait molecule, or a control compound, is immobilized on a resin at high concentration (typically 10 μM, or higher) and these resin stocks are subsequently mixed with dilute cell extracts. After a relatively long incubation, i.e., 2 h at 4 °C, the liquid phase is separated by centrifugation. This liquid phase contains the unbound prey molecules at near binding equilibrium that can be quantified using selective and quantitative analytical approaches, such as mass spectrometry. Therefore, proteins that interact with the bait molecule will appear to be depleted in the solvent phase and by measuring its relative concentration compared to the control nHU experiment, the degree of binding (θ) can be determined that can be converted to apparent steady-state dissociation constants, according to:1 θ=1−Ifree/Itot=Cbait/Cbait+Kapp where Itot and Ifree are the measured total and bait-depleted equilibrium mass spectrometry total ion intensities of prey proteins, Cbait is the bait molecule concentration and Kapp is the apparent dissociation constant.
(§2) Jurkat E6.1 cells (ECACC #88042803, RRID: CVCL_0367) were grown in RPMI (Gibco) medium completed with 10% FBS (Gibco BRL) and 40 μg/ml gentamicin (Gibco/Life Technology). To prepare total cell extracts, Jurkat cells were seeded onto T-175 flasks and grew until 3 × 10^6 cells/ml confluency. Cells were collected by 1000 g x 5 min centrifugation, washed with PBS and then lysed in ice-cold lysis buffer (Hepes-KOH pH 7.5 50 mM, NaCl 150 mM, Triton X-100 1%, cOmplete EDTA-free protease inhibitor cocktail 5x, TCEP 5 mM, glycerol 10%).
(§3) Cell suspensions were sonicated 4×20 sec with 1 sec long pulse on ice, then incubated rotating at 4 °C for 30 min. The lysates were centrifuged at 12,000 rpm 4 °C for 20 min and supernatant was kept. Total protein concentration was measured by standard Bradford method (Bio-Rad Protein Assay Dye Reagent #5000006) using a BSA calibration curve (MP Biomedicals #160069, diluted in lysis buffer) on a Bio-Rad SmartSpec 3000 spectrophotometer instrument.
(§4) Titration holdup experiments were carried out as described above using 25 μl saturated resins prepared. Briefly, we mixed control, or bait-saturated resins at various proportions by keeping the total resin amount and resin-analyte ratio constant during the experiment (for 25 μl we used 100 μl cell extract as analyte). In titration experiments with protein baits, bait concentration was determined as described above for the saturated resin stocks. Experiments were carried out at 4 °C for 2 h and recovered supernatants were subjected to western blot or dot blot analysis.
(§5) For Western blot, samples were mixed with 4x Laemmli Sample Buffer in 3:1 ratio. Equal amounts of samples were loaded on 6-10% acrylamide-gels (generally 16 μg). Transfer was done into PVDF membranes using a Trans-Blot Turbo Transfer System and Trans-Blot Turbo RTA Transfer Kit (BioRad, #1704275). For Dot blot, nHU samples were directly loaded on Nitrocellulose membranes using 48 Sample vacuum manifold (Cleaver Scientific) following the manufacturer’s recommendations.
After 1 h of blocking in 5% milk, membranes were incubated overnight at 4 °C with primary antibodies in 5% milk-TBS-Tween.

EPS15 = molecular target: T1, EPS15 (Homo sapiens, UniProt P42566); assay: Titration nHU, Western blot, endogenous EPS15 in Jurkat extract; type: binding; details: source data of Fig 5, titration nHU, unit inferred
T1 construct: endogenous in cells; host or cells: Jurkat E6.1
T1 sequence (P42566 1-896): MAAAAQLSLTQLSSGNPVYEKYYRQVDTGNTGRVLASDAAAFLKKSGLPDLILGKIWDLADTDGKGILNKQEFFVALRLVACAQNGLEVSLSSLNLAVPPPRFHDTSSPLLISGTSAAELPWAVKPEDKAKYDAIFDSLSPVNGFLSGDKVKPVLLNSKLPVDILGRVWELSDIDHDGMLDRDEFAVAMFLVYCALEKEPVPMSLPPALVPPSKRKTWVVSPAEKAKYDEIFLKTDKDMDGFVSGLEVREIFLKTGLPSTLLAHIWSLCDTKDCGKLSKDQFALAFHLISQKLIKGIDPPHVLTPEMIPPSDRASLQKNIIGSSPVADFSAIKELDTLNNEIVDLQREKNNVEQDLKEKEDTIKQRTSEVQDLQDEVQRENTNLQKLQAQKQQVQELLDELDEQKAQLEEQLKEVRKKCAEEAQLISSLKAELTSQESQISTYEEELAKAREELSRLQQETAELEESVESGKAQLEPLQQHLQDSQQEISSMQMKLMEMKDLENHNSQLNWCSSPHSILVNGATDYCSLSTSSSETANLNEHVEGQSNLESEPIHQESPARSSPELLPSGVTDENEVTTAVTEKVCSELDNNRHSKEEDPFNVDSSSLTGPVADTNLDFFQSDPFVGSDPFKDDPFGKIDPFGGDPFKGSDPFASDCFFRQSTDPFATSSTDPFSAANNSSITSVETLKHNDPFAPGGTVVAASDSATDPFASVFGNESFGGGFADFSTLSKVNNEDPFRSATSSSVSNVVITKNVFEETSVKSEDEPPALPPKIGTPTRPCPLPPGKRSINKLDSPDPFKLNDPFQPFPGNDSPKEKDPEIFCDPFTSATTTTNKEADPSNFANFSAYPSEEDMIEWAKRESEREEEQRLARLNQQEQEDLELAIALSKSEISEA
Excerpt: as §1, §2, §3, §4
as §5, with “recommendations. […]” for “recommendations.”

| Structure (SMILES) | Kd (POLE) | Kd (EPS15) |
| --- | --- | --- |
| CC(C)C[C@H](NC(=O)[C@H](CCCNC(=N)N)NC(=O)[C@H](C)NC(=O)[C@H](Cc1ccccc1)NC(=O)[C@@H]1CCCN1C(=O)[C@H](CC(N)=O)NC(=O)[C@H](CCCNC(=N)N)NC(=O)[C@H](CCCNC(=N)N)NC(=O)[C@H](C)NC(=O)[C@H](C)NC(=O)[C@H](CC(=O)O)NC(=O)[C@H](CC(C)C)NC(=O)[C@H](CCCNC(=N)N)NC(=O)[C@H](C)NC(=O)[C@H](Cc1ccccc1)NC(=O)[C@@H]1CCCN1C(=O)[C@H](CC(N)=O)NC(=O)[C@H](CCCNC(=N)N)NC(=O)[C@H](CCCNC(=N)N)NC(=O)[C@H](C)NC(=O)[C@H](CC(=O)O)NC(=O)[C@H](CC(C)C)NC(=O)[C@H](CCCNC(=N)N)NC(=O)[C@H](C)NC(=O)[C@H](Cc1ccccc1)NC(=O)[C@@H]1CCCN1C(=O)[C@H](CC(N)=O)NC(=O)[C@H](CCCNC(=N)N)NC(=O)[C@H](CCCNC(=N)N)NC(=O)[C@H](C)NC(=O)[C@H](C)NC(=O)CCCCCNC(=O)CCCC[C@@H]1SC[C@@H]2NC(=O)N[C@@H]21)C(=O)N[C@@H](CC(=O)O)C(N)=O [3xDONSON] (HELM PEPTIDE1{[O=C1N[C@H]2[C@H](CS[C@H]2CCCCC(=O)[*:2])N1].[O=C(CCCCCN[*:1])[*:2]].A.A.R.R.N.P.F.A.R.L.D.A.R.R.N.P.F.A.R.L.D.A.A.R.R.N.P.F.A.R.L.D.[am]}$$$$V2.0) | 0.1 µM | 0.8 µM |
| C[C@H](NC(=O)[C@H](C)NC(=O)[C@@H]1CCCN1C(=O)CNC(=O)CCCCCNC(=O)CCCC[C@@H]1SC[C@@H]2NC(=O)N[C@@H]21)C(=O)N[C@@H](C)C(=O)N[C@@H](CCCNC(=N)N)C(=O)N[C@@H](CCCNC(=N)N)C(=O)N[C@@H](CC(N)=O)C(=O)N1CCC[C@H]1C(=O)N[C@@H](Cc1ccccc1)C(=O)N[C@@H](CO)C(=O)N[C@@H](CC(=O)O)C(=O)N[C@@H](CCCNC(=N)N)C(=O)N[C@@H](CC(=O)O)C(=O)N[C@@H](CC(N)=O)C(=O)N[C@@H](CCCNC(=N)N)C(=O)N1CCC[C@H]1C(=O)N[C@@H](CCCNC(=N)N)C(N)=O [DONSON_SYNJ1_C] (HELM PEPTIDE1{[O=C1N[C@H]2[C@H](CS[C@H]2CCCCC(=O)[*:2])N1].[O=C(CCCCCN[*:1])[*:2]].G.P.A.A.A.R.R.N.P.F.S.D.R.D.N.R.P.R.[am]}$$$$V2.0) | 8.5 µM | > 20 µM |
| C[C@H](NC(=O)[C@H](C)NC(=O)[C@@H]1CCCN1C(=O)CNC(=O)CCCCCNC(=O)CCCC[C@@H]1SC[C@@H]2NC(=O)N[C@@H]21)C(=O)N[C@H](C(=O)N[C@@H](CCCNC(=N)N)C(=O)N[C@H](C(=O)N[C@@H](CC(N)=O)C(=O)N1CCC[C@H]1C(=O)N[C@@H](Cc1ccccc1)C(=O)N[C@@H](CO)C(=O)N[C@@H](CC(=O)O)C(=O)N[C@@H](CCCNC(=N)N)C(=O)N[C@@H](CC(=O)O)C(=O)N[C@@H](CC(N)=O)C(=O)N[C@@H](CCCNC(=N)N)C(=O)N1CCC[C@H]1C(=O)N[C@@H](CCCNC(=N)N)C(N)=O)[C@@H](C)O)[C@@H](C)O [DONSON_SYNJ1_NC] (HELM PEPTIDE1{[O=C1N[C@H]2[C@H](CS[C@H]2CCCCC(=O)[*:2])N1].[O=C(CCCCCN[*:1])[*:2]].G.P.A.A.T.R.T.N.P.F.S.D.R.D.N.R.P.R.[am]}$$$$V2.0) | > 200 µM | > 200 µM |
| CC(C)C[C@H](NC(=O)[C@H](CCCNC(=N)N)NC(=O)[C@H](C)NC(=O)[C@H](Cc1ccccc1)NC(=O)[C@@H]1CCCN1C(=O)[C@H](CC(N)=O)NC(=O)[C@@H](NC(=O)[C@H](CCCNC(=N)N)NC(=O)[C@@H](NC(=O)[C@H](C)NC(=O)[C@H](C)NC(=O)[C@@H]1CCCN1C(=O)CNC(=O)CCCCCNC(=O)CCCC[C@@H]1SC[C@@H]2NC(=O)N[C@@H]21)[C@@H](C)O)[C@@H](C)O)C(=O)N[C@@H](CC(=O)O)C(=O)N[C@@H](CC(N)=O)C(=O)N[C@@H](CCCNC(=N)N)C(=O)N1CCC[C@H]1C(=O)N[C@@H](CCCNC(=N)N)C(N)=O [DONSON_SYNJ1_N] (HELM PEPTIDE1{[O=C1N[C@H]2[C@H](CS[C@H]2CCCCC(=O)[*:2])N1].[O=C(CCCCCN[*:1])[*:2]].G.P.A.A.T.R.T.N.P.F.A.R.L.D.N.R.P.R.[am]}$$$$V2.0) | 9.4 µM | > 30 µM |
